# Experimental data reported in patent US20230212122A1, “MITOCHONDRIAL TARGETING COMPOUNDS FOR THE TREATMENT OF ASSOCIATED DISEASES” (The Regents of the University of Michigan, priority 2020, published 2023).
# Columns and labels:
# Format in all cases: cell-based
# [1] = test system: UM16 cell line; assay: Nascent RNA sequencing (Bru-seq), gene fold change; conditions: 5 μM, 4 hours; protein-coding, upregulated
# Excerpt: Consistent with this observation, there are also massive metabolite pathways influenced including starch and sucrose metabolism, glycolysis and gluconeogenesis, purine metabolism, pyrimidine metabolism, N-glycan biosynthesis, etc.
# [2] = test system: BxPc3 cells; assay: MTT assay, cancer cell growth inhibition (BxPC-3); conditions: Homo sapiens, BXPC-3, 168 h, 7 days of treatment
# Protocol: Measurement of cancer cell growth inhibition of the compounds of invention Cytotoxicity of the compounds was assessed by MTT assay. In brief, MIA PaCa-2 cells or BxPc3 cells were seeded in 96-well microtitre plates at density of 200 cells/well. After overnight attachment, cells were treated with compounds at indicated concentration. After 7 days of treatment, MTT solution (3 mg/ml, 20 μl) was added to each well and cells were incubated for 3 h at 37° C. After incubation, media from each well was removed and the dark blue formazan crystals formed by live cells were dissolved in DMSO ([…] per well). The absorbance intensity was measured at 570 nm on a microplate reader (Molecular Devices, Sunnyvale, Calif., USA). The half maximal inhibitory concentration (IC50) value were calculated using 4 or 6 dots curve plotted with Cumulative Gaussian equation or Log(inhibitor) vs. response equation in GraphPad Prism.
# [3] = test system: UM16 cell line; assay: Proteomics, protein fold change; conditions: for Fold change: 5 μM
# Excerpt: Several proteins participating in energy metabolism were dramatically changed.
smiles,measurement,setting,value
"CCOC(=O)[C@@H]1CCCN(S(=O)(=O)c2ccc(S(=O)(=O)N(CC)CC)cc2)C1 [DX2-201, ethyl (R)-1-((4-(N,N-diethylsulfamoyl)phenyl)sulfonyl)piperidine-3-carboxylate]",Fold change ARHGAP30,[1],1.728
same,Fold change ARRDC3,[1],1.707
same,Fold change BNIP3L,[1],1.723
same,Fold change CCNG2,[1],1.668
same,Fold change CREBRF,[1],1.676
same,Fold change ERRFI1,[1],1.77
same,Fold change FOXO6,[1],1.954
same,Fold change HDAC5,[1],1.811
same,Fold change KLHL24,[1],2.336
same,Fold change LOXL4,[1],1.73
same,Fold change MXD4,[1],1.812
same,Fold change MXI1,[1],1.785
same,Fold change NDRG1,[1],2.874
same,Fold change PDK1,[1],1.779
same,Fold change PPP1R3C,[1],1.699
same,Fold change PRDM1,[1],1.748
same,Fold change RNF122,[1],1.915
same,Fold change SEMA3B,[1],1.668
same,Fold change SOX12,[1],1.903
same,Fold change UPRT,[1],1.74
same,Fold change VLDLR,[1],1.741
same,Fold change YPEL1,[1],1.706
same,Fold change ZNF546,[1],1.757
same,IC50,[2],0.63 ± 0.24 µM
same,"Serine protease 23, nuclear receptor family 2 group F member 6, protein NDRG1 (proteomic results)",[3],upregulated
same,Glycerol kinase fold change,"[3]; 24 hours, top upregulated",3 fold
same,dihydrolilpoyl dehudrogenase fold change,"[3]; downregulated, TCA cycle enzyme",0.684
same,Fold change,"[3]; protein ABTB2, 24 hours",0.778
same,Fold change,"[3]; protein ALAS1, 24 hours",1.393
same,Fold change,"[3]; protein ANKH, 24 hours",0.777
same,Fold change,"[3]; protein ANKRD54, 24 hours",0.799
same,Fold change,"[3]; protein AP1S2, 24 hours",0.792
same,Fold change,"[3]; protein AP2S1, 24 hours",0.781
same,Fold change,"[3]; protein APBB1IP, 24 hours",1.458
same,Fold change,"[3]; protein BTBD10, 24 hours",1.651
same,Fold change,"[3]; protein CCDC88C, 24 hours",0.785
same,Fold change,"[3]; protein CCNT2, 24 hours",1.65
same,Fold change,"[3]; protein CDC42BPA, 24 hours",1.514
same,Fold change,"[3]; protein CDCA5, 24 hours",0.761
same,Fold change,"[3]; protein CMTM4, 24 hours",1.678
same,Fold change,"[3]; protein CYP51A1, 24 hours",1.636
same,Fold change,"[3]; protein DHTKD1, 24 hours",1.384
same,Fold change,"[3]; protein DLD, 24 hours",0.684
same,Fold change,"[3]; protein DOLPP1, 24 hours",0.731
same,Fold change,"[3]; protein DOPEY2, 24 hours",0.797
same,Fold change,"[3]; protein DTNBP1, 24 hours",0.794
same,Fold change,"[3]; protein FAH, 24 hours",0.785
same,Fold change,"[3]; protein FAU, 24 hours",0.742
same,Fold change,"[3]; protein Hist1h1d, 24 hours",0.703
same,Fold change,"[3]; protein KIAA0355, 24 hours",1.48
same,Fold change,"[3]; protein MED27, 24 hours",0.79
same,Fold change,"[3]; protein MROH1, 24 hours",1.386
same,Fold change,"[3]; protein NAA35, 24 hours",1.377
same,Fold change,"[3]; protein NDRG1, 24 hours",1.55
same,Fold change,"[3]; protein NOL8, 24 hours",0.771
same,Fold change,"[3]; protein NR2F6, 24 hours",1.842
same,Fold change,"[3]; protein NRGN, 24 hours",0.795
same,Fold change,"[3]; protein OGFOD2, 24 hours",0.754
same,Fold change,"[3]; protein OSTC, 24 hours",1.418
same,Fold change,"[3]; protein PDCL, 24 hours",0.752
same,Fold change,"[3]; protein PLP2, 24 hours",0.763
same,Fold change,"[3]; protein PRSS23, 24 hours",1.844
same,Fold change,"[3]; protein RCCD1, 24 hours",1.443
same,Fold change,"[3]; protein RDH13, 24 hours",1.429
same,Fold change,"[3]; protein RRM2B, 24 hours",1.395
same,Fold change,"[3]; protein RUSC1, 24 hours",0.771
same,Fold change,"[3]; protein SCAMP2, 24 hours",0.729
same,Fold change,"[3]; protein SLC25A15, 24 hours",0.796
same,Fold change,"[3]; protein TADA3, 24 hours",1.45
same,Fold change,"[3]; protein TCEAL1, 24 hours",1.382
same,Fold change,"[3]; protein TMEM55B, 24 hours",1.664
same,Fold change,"[3]; protein UQCC3, 24 hours",1.635
same,Fold change,"[3]; protein ZBTB21, 24 hours",0.709
same,Fold change,"[3]; protein gk, 24 hours",3.009
same,Fold change,"[3]; protein krt17, 24 hours",1.386
same,Fold change,"[3]; protein pop7, 24 hours",0.736
same,Fold change,"[3]; protein scaf8, 24 hours",1.508
